# Measured values as given in patent US11497731B2, “β-lactamase inhibitor” (NATIONAL UNIVERSITY CORPORATION TOKAI NATIONAL HIGHER …, priority 2018, dated 2022).
# Like-named read-outs stand apart in the source and are kept apart here.
# What was measured:
# [1] = target: metallo-β-lactamase (IMP-1) (Serratia marcescens, UniProt P52699); experiment: Enzyme activity measurement test (imipenem decomposition); type: biochemical
# Procedure: A metallo-β-lactamase (IMP-1) (final concentration: 10 nM), and imipenem (final concentration: 100 μM) as a substrate were used. The imipenem decomposition activity (Dabs/min) at each point under the conditions of absorbance: 298 nm and temperature: 30° C. was measured by varying the concentrations of test substances (compounds Nos. 9-7, 9-8, and 9-9) as inhibitors (0 μM, 10 μM, and 100 μM). The activity when no test substance was added was defined as 100%, and the relative activity value when each test substance was individually added was calculated.
# NDM-1 = NDM-1 (Klebsiella pneumoniae, UniProt C7C422); experiment: Inhibition constant (Ki) measurement test, NDM-1; type: biochemical
# NDM-1, sequence (C7C422 29-270, looked up, species assumed): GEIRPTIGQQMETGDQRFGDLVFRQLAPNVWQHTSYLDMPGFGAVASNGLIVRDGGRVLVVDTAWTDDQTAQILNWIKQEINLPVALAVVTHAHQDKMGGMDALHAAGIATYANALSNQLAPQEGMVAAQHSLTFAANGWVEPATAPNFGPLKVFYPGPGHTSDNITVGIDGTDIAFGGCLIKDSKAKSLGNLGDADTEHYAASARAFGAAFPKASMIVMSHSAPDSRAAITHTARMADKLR
# Procedure: (§1) The inhibition constant (Ki) measurement test was performed in the following manner. The inhibition constant (Ki) was measured using various metallo-β-lactamases (final concentration: 10 nM). The imipenem decomposition activity (Δabs/min) at each point under the conditions of absorbance: 298 nm and temperature: 30° C. was measured by varying the concentration of imipenem as a substrate and the concentrations of test substances (compounds A to E) as inhibitors. Each measured value was fitted to the Lineweaver-Burk plot equation to calculate Ki.
# (§2) The test was performed in the same manner as in Test Example 6, except that X2a, X2b, X2c, X2d, X3a, and X4 were used as test substances (inhibitors).
# IMP-1 = IMP-1 (Serratia marcescens, UniProt P52699); experiment: Inhibition constant (Ki) measurement test, IMP-1; type: biochemical
# IMP-1, sequence (P52699 19-246, looked up, species assumed): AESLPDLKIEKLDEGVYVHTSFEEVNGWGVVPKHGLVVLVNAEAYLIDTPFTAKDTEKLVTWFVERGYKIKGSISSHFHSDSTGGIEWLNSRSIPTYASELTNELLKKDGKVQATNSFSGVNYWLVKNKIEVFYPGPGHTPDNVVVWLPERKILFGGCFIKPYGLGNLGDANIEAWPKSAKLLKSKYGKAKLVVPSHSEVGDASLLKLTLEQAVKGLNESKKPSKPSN
# Procedure: as §1, §2
# VIM-2 = VIM-2 (Escherichia coli, UniProt Q5U7L7); experiment: Inhibition constant (Ki) measurement test, VIM-2; type: biochemical
# Procedure: as §1, §2
# [2] = test system: Empty vector (no class B lactamase produced), pBCSK (+)/E. coli DH5a; experiment: Drug susceptibility test (MIC), empty vector strain; type: cell-based; settings: Escherichia coli
# [3] = test system: bacteria into which a plasmid encoding NDM-1 was introduced (pBCSK (+)/E. coli DH5a); experiment: Drug susceptibility test (MIC), NDM-1-producing strain; type: cell-based; settings: for MIC: Escherichia coli; for Meropenem MIC NDM-1-producing strain: MIC of meropenem with inhibitor 10 μg/mL
# Procedure: (§3) Plates for drug susceptibility test measurement were prepared by using 96- or 384-well U-bottom plates, a Mueller-Hinton liquid medium, and antimicrobial drugs (ceftazidime (CAZ), imipenem (IPM), meropenem (MPM), doripenem (DPM), and biapenem (BPM)). A 1/2 antimicrobial drug dilution series was made up to well 11 of, for example, a 96-well U-bottom plate so that the leftmost well 1 of row A contained an antimicrobial drug at the maximum concentration, the antimicrobial drug concentration in well 2 to the right of well 1 was 1/2 of the maximum concentration, the antimicrobial drug concentration in well 3 to the right of well 2 was 1/4 of the maximum concentration, and so on. […] An antimicrobial drug dilution series was made in each of rows B and C in the same manner as in row A. Further, 10 μg/mL and 50 μg/mL of a test substance (compound A) were added to row B and row C, respectively (FIG. 1).
# (§4) Bacteria into which a plasmid encoding a class B β-lactamase (metallo-β-lactamase (MBL): NDM-1, or VIM-2) was introduced (pBCSK (+)/E. coli DH5a) were used as test bacteria. The test bacteria were adjusted to 10^8 cfu/mL with a Mueller-Hinton medium. Further, the test bacteria were diluted 10-fold with a Mueller-Hinton medium (10^7 cfu/mL). 5 μl of the test bacteria was collected and inoculated into the plates for drug susceptibility test measurement. After overnight culture at 35° C., the growth of the test bacteria was visually checked. The concentration of the antimicrobial drug in a well containing the lowest concentration of the antimicrobial drug among the wells in which no growth of the test bacteria was confirmed was defined as the minimal inhibitory concentration value (FIG. 1).
# (§5) The drug susceptibility test was performed in the same manner as in Test Example 1, except that compounds A to C and E to I were used as test substances.
# (§6) The test was performed in the same manner as in Test Example 1, except that X2a, X2b, X2c, X2d, X3a, and X4 were used as test substances (inhibitors). The inhibitor concentration was 10 μg/mL.
# [4] = test system: bacteria into which a plasmid encoding VIM-2 was introduced (pBCSK (+)/E. coli DH5a); experiment: Drug susceptibility test (MIC), VIM-2-producing strain; type: cell-based; settings: for MIC: Escherichia coli; for Ceftazidime MIC VIM-2-producing strain: MIC of ceftazidime with inhibitor 10 μg/mL
# Procedure: as §3, §4, §5, §6
# [5] = test system: bacteria into which a plasmid encoding IMP-1 was introduced (pBCSK (+)/E. coli DH5a); experiment: Drug susceptibility test (MIC), IMP-1-producing strain; type: cell-based; settings: for MIC: Escherichia coli; for Meropenem MIC IMP1-producing strain: MIC of meropenem with inhibitor 10 μg/mL
# [6] = test system: β-lactamase-producing bacteria; experiment: Drug susceptibility tests, summary statements over all strains; type: cell-based, E. coli; settings: addition of the compound
# Procedure: as §3, §4
# β-lactamase = experiment: Inhibition constant (Ki) tests, summary statements over all enzymes; type: biochemical
# Procedure: as §1, §2
# [7] = imipenem substrate, enzyme 10 nM, 30° C., Lineweaver-Burk, read-out: Inhibition constant Ki NDM-1
# [8] = imipenem substrate, enzyme 10 nM, 30° C., Lineweaver-Burk, read-out: Inhibition constant Ki IMP-1
# [9] = imipenem substrate, enzyme 10 nM, 30° C., Lineweaver-Burk, read-out: Inhibition constant Ki VIM-2
# [10] = Test Example 11, same manner as Test Example 6, read-out: Enzymatic Inhibition Effect Ki NDM-1
# [11] = Test Example 11, same manner as Test Example 6, read-out: Enzymatic Inhibition Effect Ki IMP-1
# [12] = Test Example 11, same manner as Test Example 6, read-out: Enzymatic Inhibition Effect Ki VIM-2
# [13] = meropenem alone, no test substance added, Table 2
# metallo-β-lactamase (IMP-1), sequence (P52699 19-246, looked up, species assumed): as above
smiles,measurement,setting,value
Cc1oc(C)c(S(=O)(=O)N2CC3CCCC3C2)c1C(=O)O (centres unmarked) [9-7],β-lactamase activity inhibition (statement on Table 3),[1],inhibits β-lactamase activity
Cc1oc(C)c(S(=O)(=O)N2CCC(C)(C)C2)c1C(=O)O [9-8],β-lactamase activity inhibition (statement on Table 3),[1],inhibits β-lactamase activity
CCc1ccccc1CNS(=O)(=O)c1c(C)oc(C)c1C(=O)O [9-9],β-lactamase activity inhibition (statement on Table 3),[1],inhibits β-lactamase activity
NS(=O)(=O)c1sccc1C(=O)O [B],Ki,NDM-1; [7],7680 nM
same,Ki,IMP-1; [8],34100 nM
same,Ki,VIM-2; [9],15500 nM
"CC(C)(O/N=C(\C(=O)N[C@@H]1C(=O)N2C(C(=O)[O-])=C(C[n+]3ccccc3)CS[C@H]12)c1csc(N)n1)C(=O)O [CAZ, ceftazidime, reference compound]",MIC,[2]; read-out: MIC CAZ,0.25 µg/mL
same,MIC,[3]; read-out: MIC CAZ,> 1020 µg/mL
same,MIC,"[4]; read-out: Ceftazidime MIC VIM-2-producing strain, No inhibitor",16 µg/mL
same,MIC,[4]; read-out: MIC CAZ,4 µg/mL
same,"MIC VIM-2 ceftazidime, None","[4]; ceftazidime alone, no test substance added, Table 2",16 mg I^−1
same,MIC,[5]; read-out: MIC CAZ,256 µg/mL
NS(=O)(=O)c1sc(Cl)cc1C(=O)O [C],Ki,NDM-1; [7],19300 nM
same,Ki,IMP-1; [8],19100 nM
same,Ki,VIM-2; [9],2290 nM
Cc1c(C(=O)O)c(S(N)(=O)=O)c(C)n1-c1ccccc1 [Compound D],Ki,NDM-1; [7],10200 nM
same,Ki,IMP-1; [8],7510 nM
same,Ki,VIM-2; [9],20800 nM
Cc1c(C(=O)O)c(S(N)(=O)=O)c(C)n1C [Compound E],Ki,NDM-1; [7],9080 nM
same,Ki,IMP-1; [8],1230 nM
same,Ki,VIM-2; [9],420 nM
CCc1oc(CC)c(S(N)(=O)=O)c1C(=O)O [Compound F],Ki,NDM-1; [7],920 nM
same,Ki,IMP-1; [8],300 nM
same,Ki,VIM-2; [9],1010 nM
CCCc1oc(CCC)c(S(N)(=O)=O)c1C(=O)O [Compound G],Ki,NDM-1; [7],290 nM
same,Ki,IMP-1; [8],380 nM
same,Ki,VIM-2; [9],460 nM
NS(=O)(=O)c1c(C2CCCC2)oc(C2CCCC2)c1C(=O)O [Compound H],Ki,NDM-1; [7],180 nM
same,Ki,IMP-1; [8],1270 nM
same,Ki,VIM-2; [9],760 nM
CCc1c(C(=O)O)c(S(N)(=O)=O)c(C)n1C [Compound X2a],Meropenem MIC NDM-1-producing strain,[3],0.0625 µg/mL
same,"effect on MICs of the antimicrobial drugs (statement on Tables 1, 2, 4)",[6],decreases the MICs
same,Ki,NDM-1; [10],1830 nM
same,Ceftazidime MIC VIM-2-producing strain,[4],1 µg/mL
same,Meropenem MIC IMP1-producing strain,[5],0.031 µg/mL
same,Ki,IMP-1; [11],1770 nM
same,"β-lactamase activity inhibition (statement on Tables 2, 5)",β-lactamase,inhibits β-lactamase activity
same,Ki,VIM-2; [12],23 nM
CCc1c(S(N)(=O)=O)c(C(=O)O)c(C)n1C [Compound X2b],Meropenem MIC NDM-1-producing strain,[3],0.0625 µg/mL
same,"effect on MICs of the antimicrobial drugs (statement on Tables 1, 2, 4)",[6],decreases the MICs
same,Ki,NDM-1; [10],1730 nM
same,Ceftazidime MIC VIM-2-producing strain,[4],1 µg/mL
same,Meropenem MIC IMP1-producing strain,[5],0.031 µg/mL
same,Ki,IMP-1; [11],980 nM
same,"β-lactamase activity inhibition (statement on Tables 2, 5)",β-lactamase,inhibits β-lactamase activity
same,Ki,VIM-2; [12],100 nM
CCc1c(C(=O)O)c(S(N)(=O)=O)c(-c2ccccc2)n1C [Compound X2c],Meropenem MIC NDM-1-producing strain,[3],0.5 µg/mL
same,"effect on MICs of the antimicrobial drugs (statement on Tables 1, 2, 4)",[6],decreases the MICs
same,Ki,NDM-1; [10],1500 nM
same,Ceftazidime MIC VIM-2-producing strain,[4],1 µg/mL
same,Meropenem MIC IMP1-producing strain,[5],0.031 µg/mL
same,Ki,IMP-1; [11],1240 nM
same,"β-lactamase activity inhibition (statement on Tables 2, 5)",β-lactamase,inhibits β-lactamase activity
same,Ki,VIM-2; [12],19 nM
CCc1c(C(=O)O)c(S(N)(=O)=O)c(CC)n1N [Compound X3a],Meropenem MIC NDM-1-producing strain,[3],0.5 µg/mL
same,"effect on MICs of the antimicrobial drugs (statement on Tables 1, 2, 4)",[6],decreases the MICs
same,Ki,NDM-1; [10],22100 nM
same,Ceftazidime MIC VIM-2-producing strain,[4],4 µg/mL
same,Meropenem MIC IMP1-producing strain,[5],0.031 µg/mL
same,Ki,IMP-1; [11],21400 nM
same,"β-lactamase activity inhibition (statement on Tables 2, 5)",β-lactamase,inhibits β-lactamase activity
same,Ki,VIM-2; [12],1970 nM
CCc1c(C(=O)O)c(S(N)(=O)=O)c(C(C)C)n1C [Compound X4],Meropenem MIC NDM-1-producing strain,[3],0.5 µg/mL
same,"effect on MICs of the antimicrobial drugs (statement on Tables 1, 2, 4)",[6],decreases the MICs
same,Ki,NDM-1; [10],4300 nM
same,Ceftazidime MIC VIM-2-producing strain,[4],1 µg/mL
same,Meropenem MIC IMP1-producing strain,[5],0.031 µg/mL
same,Ki,IMP-1; [11],900 nM
same,"β-lactamase activity inhibition (statement on Tables 2, 5)",β-lactamase,inhibits β-lactamase activity
same,Ki,VIM-2; [12],17 nM
"C[C@@H](O)[C@H]1C(=O)N2C(C(=O)O)=C(S[C@@H]3CN[C@H](C(=O)N(C)C)C3)[C@H](C)[C@H]12 [MPM, meropenem, reference compound]",MIC,[2]; read-out: MIC MPM,0.016 µg/mL
same,MIC,"[3]; read-out: Meropenem MIC NDM-1-producing strain, No inhibitor",4 µg/mL
same,"MIC NDM-1 meropenem, None",[3]; [13],64 mg I^−1
same,MIC,[4]; read-out: MIC MPM,0.063 µg/mL
same,MIC,[5]; read-out: MIC MPM,0.5 µg/mL
same,MIC,"[5]; read-out: Meropenem MIC IMP1-producing strain, No inhibitor",2 µg/mL
same,"MIC IMP-1 meropenem, None",[5]; [13],1 mg I^−1
